Source: ChEMBL document CHEMBL3046788, “Synthesis and antifungal activity of N-(substituted pyridinyl)-1-methyl(phenyl)-3-(trifluoromethyl)-1H-pyrazole-4-carboxamide derivatives” (Molecules, 2012)
Values after ≈ are worked out from the molar mass of the structure shown.

How the values were obtained:
Fusarium oxysporum [1] = assay: Antifungal activity against Fusarium oxysporum assessed as inhibition of mycelium growth at 100 ug/ml; type: functional; settings: read-out: GI
Cytospora [2] = assay: Antifungal activity against Cytospora mandshurica assessed as inhibition of mycelium growth at 100 ug/ml; type: functional; settings: read-out: GI
Fusarium graminearum [3] = assay: microbe, parasite or virus in culture; type: functional; settings: read-out: GI
Fusarium oxysporum [4] = assay: Antifungal activity against Fusarium oxysporum assessed as inhibition of mycelium growth; type: functional, organism-based
Fusarium graminearum [5] = assay: Antifungal activity against Fusarium graminearum assessed as inhibition of mycelium growth; type: functional, organism-based
Cytospora [6] = assay: Antifungal activity against Cytospora mandshurica assessed as inhibition of mycelium growth; type: functional, organism-based

Row | Structure (SMILES) | inhibition of growth at 100 µg/mL (Fusarium oxysporum [1]) | inhibition of growth at 100 µg/mL (Cytospora [2]) | inhibition of growth at 100 µg/mL (Fusarium graminearum [3]) | EC50 (Fusarium oxysporum [4]) | EC50 (Fusarium graminearum [5]) | EC50 (Cytospora [6])
1 | Cn1cc(C(=O)Nc2ccc(C(F)(F)F)cn2)c(C(F)(F)F)n1 | 39.1% | 35.6% | 51.6% |  |  | 
2 | Cn1cc(C(=O)Nc2ccc(Br)cn2)c(C(F)(F)F)n1 | 53.5% | 48.7% | 73.2% | 97.8 µg/mL (≈ 280 µM) | 76.3 µg/mL (≈ 219 µM) | 132 µg/mL (≈ 380 µM)
3 | Cn1cc(C(=O)Nc2ccnc(Cl)c2)c(C(F)(F)F)n1 | 5.9% | 9.1% | 60.1% |  |  | 
4 | Cc1cccc(NC(=O)c2cn(C)nc2C(F)(F)F)n1 | 22.3% | 20.8% | 34.7% |  |  | 
5 | Cn1cc(C(=O)Nc2ccccn2)c(C(F)(F)F)n1 | 19.5% | 9% | 40.9% |  |  | 
6 | Cn1cc(C(=O)Nc2ccncc2)c(C(F)(F)F)n1 | 11.8% | 2.9% | 26.3% |  |  | 
7 | Cc1ccnc(NC(=O)c2cn(C)nc2C(F)(F)F)c1 | 6.9% | 1.74% | 25.2% |  |  | 
8 | Cn1cc(C(=O)Nc2ccc(F)cn2)c(C(F)(F)F)n1 | 22.5% | 13.6% | 30.4% |  |  | 
9 | Cn1cc(C(=O)Nc2cccnc2Cl)c(C(F)(F)F)n1 | 14.9% | 4.9% | 40.4% |  |  | 
10 | Cc1ccc(NC(=O)c2cn(C)nc2C(F)(F)F)nc1 | 8.3% | 0% | 39.3% |  |  | 
11 | Cn1cc(C(=O)Nc2ccc(Cl)cn2)c(C(F)(F)F)n1 | 30.1% | 13.6% | 26% |  |  | 
12 | Cn1cc(C(=O)Nc2ccnc(Br)c2)c(C(F)(F)F)n1 | 10.9% | 6.4% | 25.2% |  |  | 
13 | O=C(Nc1ccncc1)c1cn(-c2ccccc2)nc1C(F)(F)F | 7.9% | 0% | 11.3% |  |  | 
14 | O=C(Nc1ccnc(Cl)c1)c1cn(-c2ccccc2)nc1C(F)(F)F | 0% | 0% | 16.2% |  |  | 
15 | O=C(Nc1ccnc(Br)c1)c1cn(-c2ccccc2)nc1C(F)(F)F | 5.7% | 0% | 10.7% |  |  | 
16 | O=C(Nc1ccccn1)c1cn(-c2ccccc2)nc1C(F)(F)F | 23.9% | 17% | 35.2% |  |  | 
17 | O=C(Nc1ccncc1Br)c1cn(-c2ccccc2)nc1C(F)(F)F | 27.2% | 8.4% | 22.6% |  |  | 
18 | Cc1cnccc1NC(=O)c1cn(-c2ccccc2)nc1C(F)(F)F | 11.5% | 6.1% | 6.7% |  |  | 
19 | Cc1cc(NC(=O)c2cn(-c3ccccc3)nc2C(F)(F)F)ccn1 | 4.23% | 0% | 9.8% |  |  | 
20 | O=C(Nc1cccnc1)c1cn(-c2ccccc2)nc1C(F)(F)F | 10.6% | 0% | 6.1% |  |  | 
21 | O=C(Nc1ccc(Cl)cn1)c1cn(-c2ccccc2)nc1C(F)(F)F | 14.2% | 10.1% | 16.5% |  |  | 
22 | Cc1ccc(NC(=O)c2cn(-c3ccccc3)nc2C(F)(F)F)nc1 | 20.5% | 0% | 6.4% |  |  | 
23 | O=C(Nc1ccccc1-c1ccc(Cl)cc1)c1cccnc1Cl [BOSCALID] | 4.3% | 3.4% | 35.9% |  |  | 
24 | CC1=C(C(=O)Nc2ccccc2)SCCO1 [CARBOXIN] | 23.6% |  | 56.3% |  |  | 
